Like-named read-outs stand apart in the source and are kept apart here.
Tests used:
[1] = test system: human liver microsomes (HLM); assay: Inhibition of R- and S-oxazepam glucuronidation in human liver microsomes
Experimental: (§1) A Waters Corp BEH C18 Acquity UPLC column (1.7 µM, 2.1 × 100 mm) was used at a constant temperature of 40 °C for chromatographic separation. An elution gradient was used for 6.5 min with mobile phases A (5 mM ammonium formate) and B (100% methanol) under the following conditions: 90% A for 0.5 min, followed by a linear gradient for 3 min to 60% A, 1 min at 5% A, and re-equilibration for 1 min at 90% A.
(§2) The reaction was initiated by the addition of 4 mM UDPGA as the cofactor and incubated for 2 h at 37 °C. The reaction was terminated by adding 30 µL of an ice-cold stop solution (acetonitrile/methanol; 1:1). The reaction mixtures were centrifuged at 17,000× g for 30 min at 4 °C, and the supernatant was transferred to UPLC sample glass vial for analysis using UPLC–MS/MS (described above). […] As a positive control for inhibition assays, ketoconazole (10 μM and 100 µM) was used as a potential inhibitor of the UGTs 1A9, 2B7, and 2B15. Reactions containing only the cannabinoid vehicle (3% methanol) and without any inhibitor (cannabinoids) were used as a baseline reaction for 100% enzyme activity, while a reaction without UDPGA was used as a negative control. All experiments were performed in three independent experiments.
(§3) Determination of IC50 and Ki Values. […] The nonspecific binding constants (fu,inc) for cannabinoids in HEK293 microsomes, HLM, and HKM were previously determined and used to calculate the inhibition by unbound (‘free’) cannabinoid in each reaction. A nonlinear regression analysis and the following equation were used to calculate the IC50 values:(1) y = Bottom +Top − Bottom / 1 + 10^x − LogIC50A where ‘Bottom’ is the maximum observed inhibition (lowest percent activity) and ‘Top’ is the minimum observed inhibition (highest percent activity) for a given cannabinoid.
(§4) The inhibition constant (Ki) was generated from the in vitro IC50 values assuming competitive inhibition (based on the Cheng–Prusoff equation; [49]). Considering that there have been no reports of the irreversible inhibition (e.g., mechanism-based inhibition) of UGTs, competitive inhibition was assumed as the worst-case scenario (highest inhibition) among all feasible types of reversible inhibitions. The substrate concentration used in the incubations was below the reported Km; therefore, the Ki values were predicted using Equation (2):(2) Ki=IC50/S/Km+1 where Km is Michaelis–Menten constant for the substrate, S is the substrate concentration, and IC50 is half-maximal inhibitory concentration.

[2] = test system: human kidney microsomes (HKM); assay: Inhibition of R- and S-oxazepam glucuronidation in human kidney microsomes
Experimental: as §1, §2, §3

[3] = target: T1, UGT2B7 (Homo sapiens, UniProt P16662); assay: Inhibition of R- and S-oxazepam glucuronidation in rUGT2B7 microsomes (UGT-overexpressing HEK293); format: biochemical; conditions: for inhibition at 2 h, 100 µM: human, pH 7.4, rUGT2B7 microsomes; for IC50: rUGT2B7
T1 construct: expressed in transfected cells; microsomal fraction
T1 sequence (P16662 24-529): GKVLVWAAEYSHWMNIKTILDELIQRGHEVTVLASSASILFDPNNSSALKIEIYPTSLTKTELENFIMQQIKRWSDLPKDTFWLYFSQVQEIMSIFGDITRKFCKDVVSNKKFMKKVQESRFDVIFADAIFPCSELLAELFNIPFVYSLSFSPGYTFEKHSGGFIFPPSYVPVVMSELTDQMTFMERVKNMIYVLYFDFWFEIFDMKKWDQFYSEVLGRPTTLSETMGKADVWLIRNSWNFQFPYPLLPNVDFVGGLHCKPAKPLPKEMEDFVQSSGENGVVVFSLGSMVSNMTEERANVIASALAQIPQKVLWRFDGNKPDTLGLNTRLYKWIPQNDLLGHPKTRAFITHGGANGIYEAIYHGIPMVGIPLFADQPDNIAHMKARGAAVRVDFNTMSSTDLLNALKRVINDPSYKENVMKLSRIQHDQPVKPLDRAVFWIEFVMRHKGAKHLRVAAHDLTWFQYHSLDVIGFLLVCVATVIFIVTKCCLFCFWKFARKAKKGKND
Experimental: Human embryonic kidney cells (HEK293) stably overexpressing the single UGTs 1A9, 2B7, and 2B15 have been previously established and described. Cells were grown in DMEM supplemented with 350 μg/mL of geneticin and 10% FBS and harvested in PBS. Microsomal fractions of UGT-overexpressing cell lines were prepared by differential centrifugation using previously described protocols. Briefly, cell homogenates were prepared by resuspending pelleted cells in PBS, followed by five rounds of freeze–thaw cycles prior to homogenization. Recombinant microsomes (rUGTs) were prepared by centrifuging the cell homogenate at a low speed (9000× g for 30 min) followed by ultracentrifugation (34,000× g for 60 min), with the total protein subsequently determined using a BCA assay. Recombinant microsomes (UGT1A9 and 2B7) and homogenates (UGT2B15) were used for inhibition studies.
as §1, §2, §3

[4] = test system: UGTs (R-oxazepam glucuronidation in HLM); assay: Inhibition of R- and S-oxazepam glucuronidation in human liver microsomes; conditions: human, human liver microsomes
Experimental: as §1, §2, §3, §4

[5] = test system: UGTs (S-oxazepam glucuronidation in HLM); assay: as above; conditions: human, human liver microsomes
Experimental: as §1, §2, §3, §4

[6] = test system: UGTs (S-oxazepam glucuronidation in HKM); assay: Inhibition of R- and S-oxazepam glucuronidation in human kidney microsomes; conditions: human, human kidney microsomes
Experimental: as §1, §2, §3

[7] = test system: UGTs (R-oxazepam glucuronidation in HKM); assay: as above; conditions: human, human kidney microsomes
Experimental: as §1, §2, §3

[8] = cited from earlier work
[9] = read-out: IC50, R-Oxazepam Glucuronide
[10] = read-out: IC50, S-Oxazepam Glucuronide
[11] = read-out: IC50,u, R-Oxazepam Glucuronide, IC50 corrected with fu,inc
[12] = read-out: Ki, R-Oxazepam Glucuronide, generated from IC50 assuming competitive inhibition
[13] = read-out: Ki, S-Oxazepam Glucuronide, generated from IC50 assuming competitive inhibition
[14] = read-out: Ki,u, R-Oxazepam Glucuronide, Ki corrected with fu,inc
[15] = read-out: Ki,u, S-Oxazepam Glucuronide, Ki corrected with fu,inc
[16] = read-out: IC50,u, S-Oxazepam Glucuronide, IC50 corrected with fu,inc
[17] = rUGT2B7 microsomes, 100 µM cannabinoid
[18] = pH 7.4, IC50, R-Oxazepam Glucuronide
[19] = pH 7.4, IC50,u, R-Oxazepam Glucuronide, IC50 corrected with fu,inc
[20] = pH 7.4, IC50, S-Oxazepam Glucuronide
[21] = pH 7.4, IC50,u, S-Oxazepam Glucuronide, IC50 corrected with fu,inc

Compound | IC50 [1, 9] [µM] | IC50 [1, 10] [µM] | IC50 [1, 11] [µM] | Ki [1, 12] [µM] | Ki [1, 13] [µM] | Ki [1, 14] [µM] | Ki [1, 15] [µM] | IC50 [2, 9] [µM] | IC50 [2, 10] [µM] | IC50 [2, 16] [µM] | Inhibition of R-oxazepam glucuronidation [3, 17] [%] | further results
CCCCCc1cc(O)c2c(c1)OC(C)(C)[C@@H]1CCC(C)=C[C@@H]21 [THC, Δ^9-tetrahydrocannabinol] | 34 ± 16 | > 100 | 1.6 ± 0.77 | 33 ± 15 | > 83 | 1.6 ± 0.74 | > 3.2 | 94 ± 26 | > 100 | > 4.8 | 50 | 
C=C(C)[C@@H]1CCC(C)=C[C@H]1c1c(O)cc(CCCCC)cc1O [CBD, cannabidiol] |  |  |  | 16 ± 7.4 | 72 ± 32 | 0.82 ± 0.38 | 3.7 ± 1.6 |  |  |  |  | IC50 at 2 h [4, 18]: 16 ± 7.7 µM; IC50 at 2 h [4, 19]: 0.84 ± 0.39 µM; IC50 at 2 h [5, 20]: 87 ± 46 µM; IC50 at 2 h [5, 21]: 4.5 ± 2.4 µM; IC50 at 2 h [6, 20]: 16 ± 7.7 µM; IC50 at 2 h [6, 21]: 0.98 ± 0.48 µM; IC50 at 2 h [7, 18]: 5.9 ± 1 µM; IC50 at 2 h [7, 19]: 0.36 ± 0.062 µM; Increase in N-desmethylclobazam concentration ([8]; coadministration of clobazam, stiripentol, and CBD 750 mg twice daily): 3.4 fold; Increase in the level of 1-hydroxymidazolam ([8]; oral CBD 750 mg twice daily with midazolam): 12%; inhibition at 2 h, 100 µM ([3]; 100 µM cannabinoid, read-out: Inhibition of R-oxazepam glucuronidation): 95%; inhibition at 2 h, 100 µM ([3]; 100 µM cannabinoid, read-out: Inhibition of S-oxazepam glucuronidation): 89%
11-hydroxy-Δ^9-tetrahydrocannabinol [11-OH-THC] | 18 ± 5 | 41 ± 25 | 1.7 ± 0.47 | 18 ± 4.9 | 34 ± 21 | 1.7 ± 0.46 | 3.2 ± 2 | 18 ± 4.3 | 19 ± 2 | 1.8 ± 0.19 | 80 | IC50 [1, 16]: 3.9 ± 2.4 µM; IC50 [2, 11]: 1.7 ± 0.4 µM; IC50 ([3]; IC50 corrected with fu,inc, read-out: IC50,u, R-Oxazepam Glucuronide): 0.77 ± 0.64 µM; IC50 ([3]; IC50 corrected with fu,inc, read-out: IC50,u, S-Oxazepam Glucuronide): 0.53 ± 0.26 µM; IC50 [3, 9]: 9.9 ± 8.2 µM; IC50 [3, 10]: 6.8 ± 3.3 µM; Inhibition of S-oxazepam glucuronidation [3, 17]: 81%

Source: paper PMC10892093 (Pharmaceutics, 2024)
